From PMC9118553, “In Vivo Bioconcentration of 10 Anionic Surfactants in Rainbow Trout Explained by In Vitro Data on Partitioning and S9 Clearance” (Environmental Science & Technology, 2022)

Experiments:
[1] = ref REACH dossier; cited from earlier work
[2] = parameters: method as in REACH dossier; settings: method as noted in the cell (shake flask, solubility ratio, HPLC, BCFBAF, pH); ref REACH dossier; cited from earlier work
[3] = tested on: carp; parameters: method as in REACH dossier; settings: carp 28d pH7; ref REACH dossier; cited from earlier work
[4] = RT-S9 substrate depletion assay, mixture of 9 anionic surfactants (AnionMixture); settings: tested in a mixture
Description: (§1) An established RT-S9 substrate depletion assay was employed,[25]−[27] predating the currently available OECD guideline 319B.[28] A single batch of the characterized liver homogenate material was prepared at the US EPA lab in Duluth and shipped on dry ice to the testing facilities at the University of Amsterdam. The test was conducted using the same method applied for a series of cationic surfactants in Droge et al.[29] and is summarized together with the in vitro–in vivo extrapolation in Text S4.
(§2) Text S4: Trout liver S9 parent depletion assay details and IVIVE
(§3) Liver tissue was separately pooled from the same five rainbow trout (three males/two females, ~300 g, liver weight ~3 g) used also for the RT-S9 study on a series of cationic surfactants (Droge et al., 2021b). The liver sample was homogenized in an appropriate buffer and then centrifuged to yield a 13,000 x g supernatant (the ‘S9 fraction’, lacking only mitochondrial fractions). No further refinement towards microsomal fractions was made to remove cytosolic and lysosomal components.
(§4) Upon arrival at the University of Amsterdam the liver
(§5) S9 material was stored in a -80 °C freezer until use.
(§6) Individual chemicals were first dissolved in methanol and then further diluted to 20% methanol in 100 mM phosphate buffer to make a ~20 µM stock solution, which was then spiked as 10 µL in 190 µL of active S9 mixture. The active S9 mixture consisted of 100 mM potassium phosphate-buffered saline (PPBS) adjusted to pH 7.8, 2 mM β-NADPH, 2 mM UDPGA, 0.1 mM PAPS, 5 mM GSH, 10 μg/mL alamethicin (in methanol carrier; 0.1% v/v final concentration), and 2 mg/mL S9 protein. The substrate depletion assays were performed using the multiple vial method described in OECD TG 319B, employing two or three separately spiked series.
(§7) Reactions were performed at 11 °C in a temperature-controlled water bath (B. Braun Frigomix-R) that was placed on a 2 cm travel path shaker (Gerhardt LS 10) set at 45 rpm. As a positive […]
(§8) alkylsulfonates, no additional assays with inactivated RT-S9 were performed.
(§9) Reactions were quenched with 600 µL ice-cold acetonitrile. After 10 s vortexing and 5 min centrifugation (Hermle Z300, 2500 rpm), 100 µL clear supernatant was transferred into 300 µL glass inserts placed in new autosampler vials, and mixed with 100 µL pure water. Concentrations were measured using a Prominence UFLC-XR system (Shimadzu) coupled to a tandem mass spectrometer (QTRAP 4000, Applied Biosystems) with a Turbo Ion spray source operated at 400 ◦C. For chromatographic separations, a 100 x 2.1mm x 2.7 µm Supelco Ascentis Express column was used (40 °C), with eluent A: pure water with 2 mM ammonium acetate, and eluent […]
(§10) prepared in 50% acetonitrile/water, calibration curves used covered at least four points in a log-linear range. The lowest external standard to fit the log-linear calibration curve served as limit of quantification, requiring a peak of at least 10x the average noise.
(§11) Each vial was treated as an independent vial with recorded exposure time. Log-transformed concentration data of the parent compound were plotted against exposure time (min) and analysed using Graphpad PRISM 8. […]
(§12) the slope (min-1) was multiplied by -2.3 and by 60 (min h-1) to obtain a first order depletion rate […]
(§13) Extrapolation of kdep to whole body rate biotransformation rate constant (kB-S9) The basic approach to extrapolate first order depletion rate constants (k dep) to whole body

[5] = RT-S9 substrate depletion assay, individual compounds, with IVIVE; settings: tested individually
Description: as §1, with “The in vitro intrinsic clearance by the S9 fraction of rainbow trout liver was measured for the same 11 anionic surfactants used in the BCF experiment as separate compounds. […] An” for “An”
as §2, §3, §4, §5, §6, §7, §8, §9, §10, §11, §12, §13

[6] = marked * = measured; used for IVIVE; same values as Table 3; cited from earlier work
[7] = tested on: rainbow trout; settings: rainbow trout, similar water hardness; cited from earlier work
[8] = tested on: Danio rerio; settings: in vivo, pH 7.6; cited from earlier work
[9] = parameters: method as in REACH dossier; settings: experimental, several studies; ref REACH dossier; cited from earlier work
[10] = tested on: several species; parameters: method as in doi:10.1186/s12302-020-00435-1; settings: LSC of radiolabeled compound, upper boundary; cited from earlier work
[11] = tested on: Cyprinus carpio; settings: in vivo; cited from earlier work

## CCCCCCCCCCCCCCCCCCOP(=O)([O-])[O-].[K+].[K+] [1-Octadecanol, phosphate, potassium salt]
[1]
  Degradation information ~28d-sludge test (% degradable): 0%
[2]
  LogKow: 8.556

## CC(CC(=O)O)CC(C)(C)C (stereo not shown) [3,5,5-trimethylhexanoic acid]
[1]
  Degradation information ~28d-sludge test (% degradable): 96%
[3]
  BCF: 1 to 7 L/kg

## CCCCCCCC(C=O)NCCCCCC(=O)O (stereo not shown) [6-[(1-formyloctyl)amino]hexanoic acid]
[1]
  Degradation information ~28d-sludge test (% degradable): 98%
[2]
  LogKow: 2.47

## CCCCC(CC)COP(=O)(O)OCC(CC)CCCC (stereo not shown) [BEHP, bis(2-ethylhexyl)phosphate]
[4]
  Slope of depletion curve (log concentration vs time): -0.0003 min-1
[5]
  CLint,S9: n.s.
[5]; 2 mg/mL S9 protein, 11 °C
  Slope of depletion curve (log concentration vs time): -0.0001 min-1
[6]
  log DMW, membrane-water distribution ratio: 3.81

## CCCCCCCCCC(C)c1ccc(S(=O)(=O)O)cc1 (stereo not shown) [C11-2-LAS, reference compound]
[7]
  BCF: 6 L kg^–1

## CCCCCCCCCCCC(=O)O [C11CO2]
[8]
  BCF: 255 L/kg
  Exp BCF: 255

## CCCCCCCCCCCCOS(=O)(=O)[O-].[Na+] [C12SO4, sodium dodecylsulfate]
[1]
  Degradation information ~28d-sludge test (% degradable): 94-97%
[9]
  BCF: 1-10
[10]
  BCF: 1–7.15 L kg^–1

## CCCCCCCCCCCCCCOS(=O)(=O)O [C14SO4]
[11]
  BCF: 11 L kg^–1

## CCCCC(CC)COP(=O)(O)O (stereo not shown) [[(2-ethylhexyl)oxy]phosphonic acid]
[1]
  Degradation information ~28d-sludge test (% degradable): 26-78%
[2]
  LogKow: < 3

## CCCCCCC(O)CCCCCCCCCCC(=O)[O-].CCCCCCCCCCCCCCCCCC(=O)[O-].[Li+].[Li+] (stereo not shown) [dilithium(1+) ion 12-hydroxyoctadecanoate octadecanoate]
[1]
  Degradation information ~28d-sludge test (% degradable): 74-97%

## CCCCCCC(O)CCCCCCCCCCC(=O)[O-].[Li+] (stereo not shown) [lithium(1+) ion 12-hydroxyoctadecanoate]
[1]
  Degradation information ~28d-sludge test (% degradable): 74-97%

## CCCCCCCCC(=O)O [nonanoic acid]
[1]
  Degradation information ~28d-sludge test (% degradable): 68 -75%
[2]
  LogKow: 3.42

## CCCCCCCCP(=O)(O)O [octylphosphonic acid]
[1]
  Degradation information ~28d-sludge test (% degradable): 65-88%
[2]
  LogKow: 2.7

## CCCCC(CC)COC(=O)CC(C(=O)OCC(CC)CCCC)S(=O)(=O)[O-].[K+] (stereo not shown) [potassium 1,4-bis[(2-ethylhexyl)oxy]-1,4-dioxobutane-2-sulfonate]
[1]
  Degradation information ~28d-sludge test (% degradable): 83.5-100%
[2]
  LogKow: 2.0

## CCCCCCCCCCCCOP(=O)([O-])O.[K+] [potassium dodecyl hydrogen phosphate]
[1]
  Degradation information ~28d-sludge test (% degradable): 4-63%
[2]
  LogKow: 2.74

## CC(C)CP(=S)([S-])CC(C)C.[Na+] [sodium diisobutylphosphinodithioate]
[1]
  Degradation information ~28d-sludge test (% degradable): 78,8%
[2]
  LogKow: -1.64
